Assay results published in patent US11673876B2, “Substituted aminobenzyl heteroaryl compounds as EGFR and/or PI3K inhibitors” (Mekanistic Therapeutics LLC, priority 2020, dated 2023).
pIC50: −log10 of the molar value. Values after ≈ are worked out from the molar mass of the structure shown. Like-named read-outs stand apart in the source and are kept apart here.

Columns and labels:
DNA-PK = DNA-PK (Homo sapiens (Human), UniProt P78527); assay: Z'-LYTE / Adapta kinase assay, DNA-PK; assay type: biochemical; conditions: for inhibition at 0.1 µM: read-out: DNA-PK % Inh. @ 100 nM
Method in brief: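 Z'-LYTE FRET-peptide phosphorylation read as coumarin/fluorescein emission ratio (400 nm excitation); Adapta immunoassay detects ADP formation. 60-min kinase reaction, 60-min development, room temperature.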

[1] = Solubility determination (PBS 7.4, SIF, SGF); assay type: physicochemical; conditions: for solubility at 2 h: kinetic from dmso stock
Protocol: Preparation of stock solutions: The stock solutions of test compounds and control compound diclofenac were prepared in DMSO at the concentrations of 10 mM.
Simulated Gastric Fluid (SGF): An aqueous mixture including hydrochloric acid, sodium chloride, and pepsin (pH=1.2).
Simulated Intestinal Fluid (SIF): Prepared by dissolving 6.8 g of KH2PO4 into about 500 mL ultrapure water and adjust the solution to a pH 6.8 with 0.1 M NaOH. 10 g trypsin is then dissolved into ultrapure water. The two solutions are mixed well and diluted with ultrapure water to a final volume of 1000 mL.
485 μL of (SIF, SGF, PBS 7.4, FESSIF, or FESSGF) was added into each vial of the cap-less Solubility Sample plate. The assay was performed in duplicate. Add one stir stick to each vial and seal using a molded PTFE/Silicone plug. […] After completion of the 2 hours, plugs were removed and the stir sticks were removed using a big magnet, the samples from the Solubility Sample plate were transferred into the filter plate. Using the Vacuum Manifold, all the samples were filtered. Aliquot of 5 μL and 5 μL DMSO were taken from the filtrate followed by addition of 490 μL of a mixture of H2O and acetonitrile containing internal standard (1:1). A certain proportion of ultrapure water was used to dilute the diluent according to the peak shape. The dilution factor was changed according to the solubility values and the LC-MS signal response.
Preparation of 300 μM standards (STD): From the 10 mM DMSO STD plate, 6 μL was transferred into the remaining empty plate, and then 194 μL of DMSO was added to that plate to have a STD concentration of 300 μM. From the 300 μM DMSO STD plate, 5 μL DMSO STD and 5 μL SIF was transferred into the remaining empty plate, and then 490 μL of a mixture of H2O and acetonitrile containing internal standard (1:1) was added to that plate to have a final STD concentration of 3 μM. A certain proportion of ultrapure water was used to dilute the diluent according to the peak shape. The concentrations of the standard samples were changed according to the LC-MS signal response.
Procedure for sample analysis: The plate was placed into the well plate autosampler. The samples were evaluated by LC-MS/MS analysis.
Data analysis: All calculations were carried out using Microsoft Excel. The filtrate was analyzed and quantified against a standard of known concentration using LC coupled with mass spectral peak identification and quantitation. Solubility values of the test compound and control compound were calculated as follows: […]
Any value of the compounds that was not within the specified limits was rejected and the experiment was repeated.

[2] = aqueous buffer, PBS pH 7.4, 25° C., 2 hours, read-out: Solubility pH 7.4 PBS buffer
[3] = simulated gastric fluid (SGF), simulated gastric fluid pH 1.2, 25° C., 2 hours, read-out: Solubility SGF
[4] = simulated intestinal fluid (SIF), simulated intestinal fluid pH 6.8, 25° C., 2 hours, read-out: Solubility SIF

SMILES	pIC50 (DNA-PK)	inhibition at 0.1 µM (DNA-PK) [%]	solubility at 2 h [1, 2] [µM]	solubility at 2 h [1, 3] [µM]	solubility at 2 h [1, 4] [µM]	DNA-PK % Inh. @ 100 nM (DNA-PK; 100 nM)	Solubility SIF ([1]; simulated intestinal fluid pH 6.8, 25° C., 2 hours)	improvement in solubility compared to Comparative Compounds 1-3 ([1]; PBS buffer)	improvement in solubility compared to Comparative Compounds 1-3 ([1]; simulated intestinal fluid)
CS(=O)(=O)Nc1cc(-c2ccc3ncnc(NCc4ccccc4)c3c2)cnc1Cl [Comparative Compound 1, N-[5-[4-(benzylamino)quinazolin-6-yl]-2-chloro-3-pyridyl]methanesulfonamide, reference compound]	> 8.70	> 90	≤ 20	> 200	≤ 20	–	–	–	–
CS(=O)(=O)Nc1cc(-c2ccc3ncnc(Nc4ccc(F)c(Cl)c4)c3c2)cnc1Cl [Comparative Compound 2, reference compound]	> 8.70	> 90	≤ 20	> 200	≤ 20	–	–	–	–
CS(=O)(=O)Nc1cncc(-c2ccc3ncnc(NCc4ccccc4)c3c2)c1 [Comparative Compound 3, reference compound]	–	–	–	–	–	**** (value is greater than 90%)	* (value is 20 μM or less)	–	–
C[C@@H](Nc1ncnc2ccc(-c3cnc(Cl)c(NS(C)(=O)=O)c3)cc12)c1ccccc1 [Compound 2R, N-(2-chloro-5-(4-((1R-phenylethyl)amino)quinazolin-6-yl)pyridin-3-yl)methanesulfonamide]	7.70 to 8.70	> 90	100 to 200 (≈ 45.4 to 90.8 µg/mL)	> 200	100 to 200 (≈ 45.4 to 90.8 µg/mL)	–	–	same improvement in solubility	at least 5 times
C[C@H](Nc1ncnc2ccc(-c3cnc(Cl)c(NS(C)(=O)=O)c3)cc12)c1ccccc1 [Compound 2S, N-(2-chloro-5-(4-((1S-phenylethyl)amino)quinazolin-6-yl)pyridin-3-yl)methanesulfonamide]	> 8.70	> 90	–	–	100 to 200 (≈ 45.4 to 90.8 µg/mL)	–	–	–	at least 5 times
CC(Nc1c(C#N)cnc2ccc(-c3cnc(N)nc3)cc12)c1ccccc1 (stereo not drawn) [Compound 53, 6-(2-aminopyrimidin-5-yl)-4-(1-phenylethylamino) quinoline-3-carbonitrile]	6.70 to 7.70	10 to 80	–	–	20 to 100 (≈ 7.33 to 36.6 µg/mL)	–	–	–	–
C[C@@H](Nc1c(C#N)cnc2ccc(-c3cnc(N)nc3)cc12)c1ccccc1 [Compound 53R, (R)-6-(2-aminopyrimidin-5-yl)-4-((1-phenylethyl)amino)quinoline-3-carbonitrile]	6.70 to 7.70	10 to 80	–	–	20 to 100 (≈ 7.33 to 36.6 µg/mL)	–	–	–	–
CC(Nc1c(C#N)cnc2ccc(-c3cnc4[nH]ncc4c3)cc12)c1ccccc1 (stereo not drawn) [Compound 54, 4-(1-phenylethylamino)-6-(1H-pyrazolo[3,4-b]pyridin-5-yl)quinoline-3-carbonitrile]	7.70 to 8.70	80 to 90	–	–	≤ 20	–	–	–	–
C[C@@H](Nc1ncnc2ccc(-c3cnc(Cl)c(NS(C)(=O)=O)c3)cc12)c1ccc(F)cc1 [Compound 111R, N-(2-chloro-5-(4-((1R-(4-fluorophenyl)ethyl)amino)quinazolin-6-yl)pyridin-3-yl)methanesulfonamide]	–	80 to 90	20 to 100 (≈ 9.44 to 47.2 µg/mL)	> 200	20 to 100 (≈ 9.44 to 47.2 µg/mL)	–	–	–	–
